The text below walks through data of patent US8759535B2, “Substituted fused imidazole derivatives, pharmaceutical compositions, and methods of use thereof” (High Point Pharmaceuticals, LLC, priority 2010, dated 2014).

Counter-ions that a name gives are not always drawn.

Broadly, the fold induction is the signal under treatment as a multiple of the control signal.

One experiment has as its system HMOX1. In words: HMOX1 Protein Assay (immunostaining of HO-1 in NHLF cells, GE InCell 1000). It counts as cell-based. As to conditions: Homo sapiens, fold change above DMSO treated cells, 3 μM compound (asterisk), 16 h. An outline of the steps:
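Fold induction of HO-1 over vehicle, normally at 5 μM compound (asterisk marks 3 μM), in 0.8% DMSO medium. Normal human lung fibroblasts were treated 16 h, then paraformaldehyde-fixed, anti-HO-1/Alexa 488 stained with Hoechst, and read by high-content imaging.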
Regarding `Cn1c(Nc2nc3ccc(Cl)cc3s2)nc2cc(C(=O)N[C@H]3CC[C@H](O)CC3)ccc21` [Example 225, 2-(6-Chloro-benzothiazol-2-ylamino)-1-methyl-1H-benzoimidazole-5-carboxylic acid (trans-4-hydroxy-cyclohexyl)-amide], the fold induction at 3 µM was 17.7.

Take `Cn1c(Nc2nc3ccc(C(F)(F)F)cc3s2)nc2cc(C(=O)NCCF)ccc21` [Example 210, 1-Methyl-2-(6-trifluoromethyl-benzothiazol-2-ylamino)-1H-benzoimidazole-5-carboxylic acid (2-fluoro-ethyl)-amide]: the fold induction at 3 µM amounted to 29.9.

In turn, `Cn1c(Nc2nc3ccc(Cl)cc3s2)nc2cc(C(=O)NCCOCC(F)F)ccc21` [Example 259, 2-(6-Chloro-benzothiazol-2-ylamino)-1-methyl-1H-benzoimidazole-5-carboxylic acid [2-(2,2-difluoro-ethoxy)-ethyl]-amide] registered a fold induction at 3 µM of 25.4.

On to `Cn1c(Nc2nc3ccc(Cl)cc3s2)nc2cc(C(=O)NN3CCOCC3)ccc21` [Example 321, 2-(6-Chloro-benzothiazol-2-ylamino)-1-methyl-1H-benzoimidazole-5-carboxylic acid morpholin-4-ylamide], for which the fold induction at 3 µM worked out at 15.3.

`C[C@@H](NC(=O)c1ccc2c(c1)nc(Nc1nc3ccc(C(F)(F)F)cc3s1)n2C)C(=O)N1CCN(C)CC1` [Example 470, 1-Methyl-2-(6-trifluoromethyl-benzothiazol-2-ylamino)-1H-benzoimidazole-5-carboxylic acid [(R)-1-methyl-2-(4-methyl-piperazin-1-yl)-2-oxo-ethyl]-amide] gave a fold induction at 3 µM of 24.5.

Compound `CN(C)CCCC[C@H](NC(=O)c1ccc2c(c1)nc(Nc1nc3ccc(C(F)(F)F)cc3s1)n2C)C(=O)N(C)C` [Example 370, 1-Methyl-2-(6-trifluoromethyl-benzothiazol-2-ylamino)-1H-benzoimidazole-5-carboxylic acid ((S)-5-dimethylamino-1-dimethylcarbamoyl-pentyl)-amide] displayed a fold induction at 3 µM of 19.3.

Still in this experiment, the particulars now being: Homo sapiens, fold change above DMSO treated cells, 5 μM compound, 16 h.
On to `Cn1c(Nc2nc3ccc(OC(F)(F)F)cc3s2)nc2cc(C(=O)N3CCC(CCCO)CC3)ccc21` [Example 307, [4-(3-Hydroxy-propyl)-piperidin-1-yl]-[1-methyl-2-(6-trifluoromethoxy-benzothiazol-2-ylamino)-1H benzoimidazol-5-yl]-methanone], for which the fold induction at 5 µM was 31.5.

As for `CNC(=O)c1ccc2c(c1)nc(Nc1nc3ccc(S(C)(=O)=O)cc3s1)n2C` [Example 126, 2-(6-Methanesulfonyl-benzothiazol-2-ylamino)-1-methyl-1H-benzimidazole-5-carboxylic acid methylamide], the fold induction at 5 µM amounted to 4.6.

`Cn1c(Nc2nc3ccc(OC(F)(F)F)cc3s2)nc2cc(C(=O)NCCN3CCC(O)CC3)ccc21` [Example 192, 1-Methyl-2-(6-trifluoromethoxy-benzothiazol-2-ylamino)-1H-benzoimidazole-5-carboxylic acid [2-(4-hydroxy-piperidin-1-yl)-ethyl]-amide] showed a fold induction at 5 µM of 28.8.

With `CNCCn1c(Nc2nc3ccc(Cl)cc3s2)nc2cc(C(=O)NCC(=O)N(C)C)ccc21` [Example 367, 2-(6-Chloro-benzothiazol-2-ylamino)-1-(2-methylamino-ethyl)-1H-benzoimidazole-5-carboxylic acid dimethylcarbamoylmethyl-amide hydrochloride], the fold induction at 5 µM was found to be 25.4.

In the case of `CC(O)CNC(=O)c1ccc2c(c1)nc(Nc1nc3ccc(OC(F)(F)F)cc3s1)n2C` (centres unmarked) [Example 21, 1-Methyl-2-(6-trifluoromethoxy-benzothiazol-2-ylamino)-1H-benzoimidazole-5-carboxylic acid (2-hydroxy-propyl)-amide], the fold induction at 5 µM stood at 19.6.

Compound `Cn1c(Nc2nc3ccc(OC(F)(F)F)cc3s2)nc2cc(C(=O)NCCn3ccnc3)ccc21` [Example 327, 1-Methyl-2-(6-trifluoromethoxy-benzothiazol-2-ylamino)-1H-benzoimidazole-5-carboxylic acid (2-imidazol-1-yl-ethyl)-amide] displayed a fold induction at 5 µM of 31.9.

The compound `C[C@H](NC(=O)c1ccc2c(c1)nc(Nc1nc3ccc(OC(F)(F)F)cc3s1)n2C)C(=O)O` [Example 146, (S)-2-{[1-Methyl-2-(6-trifluoromethoxy-benzothiazol-2-ylamino)-1H-benzoimidazole-5-carbonyl]-amino}-propionic acid] had a fold induction at 5 µM of 3.7.

`Cn1c(Nc2nc3ccc(Cl)cc3s2)nc2cc(C(=O)NCC(=O)N[C@@H]3CCCNC3)ccc21` [Example 387, 2-(6-Chloro-benzothiazol-2-ylamino)-1-methyl-1H-benzoimidazole-5-carboxylic acid ((R)-piperidin-3-ylcarbamoylmethyl)-amide hydrochloride]: the fold induction at 5 µM amounted to 19.9.

The compound `CN(CCO)C(=O)CNC(=O)c1ccc2c(c1)nc(Nc1nc3ccc(Cl)cc3s1)n2C` [Example 391, 2-(6-Chloro-benzothiazol-2-ylamino)-1-methyl-1H-benzoimidazole-5-carboxylic acid {[(2-hydroxy-ethyl)-methyl-carbamoyl]-methyl}-amide] gave a fold induction at 5 µM of 38.6.

`Cn1c(Nc2nc3ccc(OC(F)(F)F)cc3s2)nc2cc(C(=O)NCCN3CCCCC3)ccc21` [Example 333, 1-Methyl-2-(6-trifluoromethoxy-benzothiazol-2-ylamino)-1H-benzoimidazole-5-carboxylic acid (2-piperidin-1-yl-ethyl)-amide] yielded a fold induction at 5 µM of 14.5.

`CNC(=O)c1ccc2c(c1)nc(Nc1nc3cc(F)ccc3s1)n2C` [Example 122, 2-(5-Fluoro-benzothiazol-2-ylamino)-1-methyl-1H-benzimidazole-5-carboxylic acid methylamide] had a fold induction at 5 µM of 26.1.

As to `Cn1c(Nc2nc3ccc(OC(F)(F)F)cc3s2)nc2cc(C(=O)NCC(=O)N3CCNCC3)ccc21` [Example 152, 1-Methyl-2-(6-trifluoromethoxy-benzothiazol-2-ylamino)-1H-benzimidazole-5-carboxylic acid (2-oxo-2-piperazin-1-yl-ethyl)-amide hydrochloride], the fold induction at 5 µM was found to be 15.

Turning to `C[C@@H](O)CN1CCC(NC(=O)c2ccc3c(c2)nc(Nc2nc4ccc(OC(F)(F)F)cc4s2)n3C)C1` (stereo partly drawn) [Example 294, 1-Methyl-2-(6-trifluoromethoxy-benzothiazol-2-ylamino)-1H-benzoimidazole-5-carboxylic acid [1-((R)-2-hydroxy-propyl)-pyrrolidin-3-yl]-amide], the fold induction at 5 µM turned out to be 29.4.

Consider `CCSCCNC(=O)c1ccc2c(c1)nc(Nc1nc3ccc(OC(F)(F)F)cc3s1)n2C` [Example 107, 1-Methyl-2-(6-trifluoromethoxy-benzothiazol-2-ylamino)-1H-benzoimidazole-5-carboxylic acid (2-ethylsulfanyl-ethyl)-amide], for which the fold induction at 5 µM came out at 18.6.

Turning to `CNCCNC(=O)c1ccc2c(c1)nc(Nc1nc3ccc(OC(F)(F)F)cc3s1)n2C` [Example 105, 1-Methyl-2-(6-trifluoromethoxy-benzothiazol-2-ylamino)-1H-benzoimidazole-5-carboxylic acid (2-methylamino-ethyl)-amide], the fold induction at 5 µM was 17.5.

As for `Cn1c(Nc2nc3ccc(OC(F)(F)F)cc3s2)nc2ccc(C(=O)NCCOCCO)cc21` [Example 286, 3-Methyl-2-(6-trifluoromethoxy-benzothiazol-2-ylamino)-3H-benzoimidazole-5-carboxylic acid [2-(2-hydroxy-ethoxy)-ethyl]-amide], the fold induction at 5 µM came out at 61.1.

The compound `C[C@@H](O)CNC(=O)c1ccc2c(c1)nc(Nc1nc3ccc(OC(F)(F)F)cc3s1)n2C` [Example 51, 1-Methyl-2-(6-trifluoromethoxy-benzothiazol-2-ylamino)-1H-benzoimidazole-5-carboxylic acid ((R)-2-hydroxy-propyl)-amide] came in with a fold induction at 5 µM of 9.9.

In turn, `CN(C)C(=O)CNC(=O)c1ccc2c(c1)nc(Nc1nc3ccc(Cl)cc3s1)n2C` [Example 133, 2-(6-Chloro-benzothiazol-2-ylamino)-1-methyl-1H-benzimidazole-5-carboxylic acid dimethylcarbamoylmethyl-amide] came in with a fold induction at 5 µM of 45.9.

`Cn1c(Nc2nc3ccc(OC(F)(F)F)cc3s2)nc2cc(C(=O)NCCS(C)(=O)=O)ccc21` [Example 102, 1-Methyl-2-(6-trifluoromethoxy-benzothiazol-2-ylamino)-1H-benzoimidazole-5-carboxylic acid (2-methanesulfonyl-ethyl)-amide] showed a fold induction at 5 µM of 22.6.

Take `CN(C)C(=O)C(C)(C)NC(=O)c1ccc2c(c1)nc(Nc1nc3ccc(OC(F)(F)F)cc3s1)n2C` [Example 151, 1-Methyl-2-(6-trifluoromethoxy-benzothiazol-2-ylamino)-1H-benzimidazole-5-carboxylic acid (1-dimethylcarbamoyl-1-methyl-ethyl)-amide]: the fold induction at 5 µM worked out at 41.3.

For the compound `Cn1c(Nc2nc3ccc(OC(F)(F)F)cc3s2)nc2cc(C(=O)N[C@H]3CC[C@H](O)CC3)ccc21` [Example 52, 1-Methyl-2-(6-trifluoromethoxy-benzothiazol-2-ylamino)-1H-benzoimidazole-5-carboxylic acid (trans-4-hydroxy-cyclohexyl)-amide], the fold induction at 5 µM was determined as 10.

Take `CCOCCNC(=O)c1ccc2c(c1)nc(Nc1nc3cc(F)c(F)cc3s1)n2C` [Example 87, 2-(5,6-Difluoro-benzothiazol-2-ylamino)-1-methyl-1H-benzoimidazole-5-carboxylic acid (2-ethoxy-ethyl)-amide]: the fold induction at 5 µM is 12.1.

In turn, `Cn1c(Nc2nc3ccc(OC(F)(F)F)cc3s2)nc2cc(C(=O)NCCCS(C)(=O)=O)ccc21` [Example 110, 1-Methyl-2-(6-trifluoromethoxy-benzothiazol-2-ylamino)-1H-benzimidazole-5-carboxylic acid (3-methanesulfonyl-propyl)-amide] came in with a fold induction at 5 µM of 26.3.
